# Legend:
# Format in all cases: cell-based
# A549 = assay: Drug sensitivity, MTS cell viability assay (GI50); conditions: Homo sapiens, A549, 96 hours
# Method: (§1) Drug sensitivity: Cell lines were screened for drug sensitivity by treatment with specified drugs 24 hours after seeding in appropriate seeding numbers into 96 well plates containing low glucose DME with 10% FBS. The drug was added to the plate in triplicate wells, and the cells are incubated in drug treated medium for 96 hours before cell viability was determined by MTS assay using CellTiter 96® Aqueous non-radioactive cell proliferation assay system (Promega, Madison, Wis. 53711 USA). The MTS assay was performed according to the manufacturer's instructions. Optical density was measured using a Bio-Tek 340 spectrophotometer (Bio-Tek, Winooski, Vt. 05404) and optical readings were then processed in Excel (Microsoft, Redmond, Wash. 98052-7329) and GraphPad Prism 5 linear regression software (GraphPad Software, La Jolla, Calif. 92037 USA) to determine concentration-response curves for calculating relative GI50s. […] The % growth inhibition of the test drug on cells were calculated as: [1−(Test Value)/(Control Value)]×100; these values were used to plot concentration-response curves, and then analyzed with linear regression software.
# BT474 = assay: Drug sensitivity, MTS cell viability assay (GI50); conditions: Homo sapiens, BT-474, BT474, 96 hours
# Method: as §1
# COLO205 = assay: Drug sensitivity, MTS cell viability assay (GI50); conditions: Homo sapiens, COLO 205, COLO205, 96 hours
# Method: as §1
# HCC1954 = assay: Drug sensitivity, MTS cell viability assay (GI50); conditions: Homo sapiens, HCC1954, 96 hours
# Method: as §1
# HCT116 = assay: Drug sensitivity, MTS cell viability assay (GI50); conditions: Homo sapiens, HCT-116, HCT116, 96 hours
# Method: as §1
# HeLa = assay: Drug sensitivity, MTS cell viability assay (GI50); conditions: Homo sapiens, 96 hours
# Method: as §1
# Hep3B = assay: Drug sensitivity, MTS cell viability assay (GI50)
# Method: as §1
# HepG2 = assay: Drug sensitivity, MTS cell viability assay (GI50); conditions: Homo sapiens; HepG2, 96 hours, MTS
# Method: as §1
# Hs578T = assay: Drug sensitivity, MTS cell viability assay (GI50); conditions: Homo sapiens, Hs-578T, 96 hours
# Method: as §1
# KG-1 = assay: Drug sensitivity, MTS cell viability assay (GI50); conditions: Homo sapiens, KG-1, 96 hours
# Method: as §1
# MCF7 = assay: Drug sensitivity, MTS cell viability assay (GI50); conditions: Homo sapiens, MCF7, 96 hours
# Method: as §1
# MDA-MB-361 = assay: Drug sensitivity, MTS cell viability assay (GI50); conditions: Homo sapiens, MDA-MB-361, 96 hours
# Method: as §1
# MDA-MB-453 = assay: Drug sensitivity, MTS cell viability assay (GI50); conditions: Homo sapiens, MDA-MB-453, 96 hours
# Method: as §1
# MOLM-13 = assay: Drug sensitivity, MTS cell viability assay (GI50); conditions: Homo sapiens, MOLM-13, 96 hours
# Method: as §1
# MOLT-4 = assay: Drug sensitivity, MTS cell viability assay (GI50); conditions: Homo sapiens, MOLT-4, 96 hours
# Method: as §1
# MV4-11 = assay: Drug sensitivity, MTS cell viability assay (GI50); conditions: Homo sapiens, MV4-11, 96 hours
# Method: as §1
# N87 = assay: Drug sensitivity, MTS cell viability assay (GI50); conditions: N87, 96 hours
# Method: as §1
# NCI-H520 = assay: Drug sensitivity, MTS cell viability assay (GI50); conditions: Homo sapiens, NCI-H520, 96 hours
# Method: as §1
# PC3 = assay: Drug sensitivity, MTS cell viability assay (GI50); conditions: Homo sapiens, PC-3, PC3, 96 hours
# Method: as §1
# PLC/PRF/5 = assay: Drug sensitivity, MTS cell viability assay (GI50); conditions: Homo sapiens, PLC/PRF/5, 96 hours
# Method: as §1
# RPMI8226 = assay: Drug sensitivity, MTS cell viability assay (GI50); conditions: Homo sapiens, RPMI-8226, RPMI8226, 96 hours
# Method: as §1
# RS4:11 = assay: Drug sensitivity, MTS cell viability assay (GI50); conditions: Homo sapiens, RS4:11, 96 hours
# Method: as §1
# T47D = assay: Drug sensitivity, MTS cell viability assay (GI50); conditions: Homo sapiens, 96 hours
# Method: as §1
# U-937 = assay: Drug sensitivity, MTS cell viability assay (GI50); conditions: Homo sapiens, U-937, 96 hours
# Method: as §1
# U2OS = assay: Drug sensitivity, MTS cell viability assay (GI50); conditions: Homo sapiens, 96 hours
# Method: as §1
# ZR-75-1 = assay: Drug sensitivity, MTS cell viability assay (GI50); conditions: Homo sapiens, ZR-75-1, 96 hours
# Method: as §1
# ZR-75-30 = assay: Drug sensitivity, MTS cell viability assay (GI50); conditions: Homo sapiens, ZR-75-30, 96 hours
# Method: as §1
# [1] = test system: cells with mutated p53 (MDA-MB-231); assay: p53 siRNA knockdown, sensitivity to Hec1 inhibitor (MTS); conditions: siRNA directed to p53 (sip53)
# Method: (§2) Gene silencing: Cells were plated into the wells of 96 well plates in appropriate cell numbers and transfected by the siPort NeoFx transfection method (Life Technologies, Carlsbad, Calif. 92008 USA) according to manufacturer instructions, maintained for 24 hours, then treated with drug. Cells were incubated in drug treated medium for 48 hours then analyzed by MTS assay. Control siRNA Life Technologies, Carlsbad, Calif. 92008; Cell Signaling Technology, Danvers, Mass. 01923 USA; and Santa Cruz Biotechnology, Santa Cruz, Calif. 95060 USA), Rb siRNA (#1: Life Technologies, Carlsbad, Calif. 92008 USA; #2: Santa Cruz Biotechnology, Santa Cruz, Calif. 95060 USA) and p53 siRNA (#1: Cell Signaling Technology, Danvers, Mass. 01923 USA; #2: Cell Signaling Technology, Danvers, Mass. 01923 USA) were used. Cells were treated with drugs 24 hours after seeding and incubated with the drugs for 48 hours before MTS assay. The MTS assay was performed according to the manufacturer's instructions (Promega, Madison, Wis. 53711 USA).
# (§3) Cells were analyzed for viability and cellular sensitivity expressed in GI50 (nM). RNA from transfected cells were also analyzed for p53 RNA level by quantitative real time PCR. […] Cellular sensitivity is expressed as percent growth inhibition relative to non-drug-treated cells. […]
# [2] = test system: wild-type p53 cells (A549, HCT116); assay: as above; conditions: siRNA directed to p53 (sip53)
# Method: as §2, §3
structure (smiles),measurement,setting,value
"COc1ccc(Oc2cc(C)c(-c3csc(NC(=O)c4ccncc4)n3)c(C)c2)cc1 [compound 101001, N-(4-(4-(4-methoxyphenoxy)-2,6-dimethylphenyl)thiazol-2-yl)isonicotinamide]",GI50,A549,> 10000 nM
same,GI50,BT474,85.7 nM
same,GI50,COLO205,40.2 nM
same,GI50,HCC1954,> 10000 nM
same,GI50,HCT116,38.9 nM
same,GI50,HeLa,15.8 nM
same,GI50,"Hep3B; 96 hours, listed as 110001",104 nM
same,GI50,"Hep3B; Homo sapiens, 96 h",96.1 nM
same,GI50,HepG2,273 nM
same,GI50,Hs578T,143 nM
same,GI50,KG-1,28.9 nM
same,GI50,MCF7,63.7 nM
same,GI50,MDA-MB-361,> 10000 nM
same,GI50,MDA-MB-453,23.6 nM
same,GI50,MOLM-13,315 nM
same,GI50,MOLT-4,> 30000 nM
same,GI50,MV4-11,231 nM
same,GI50,N87,> 30000 nM
same,GI50,NCI-H520,67.9 nM
same,GI50,PC3,60 nM
same,GI50,PLC/PRF/5,91.6 nM
same,GI50,RPMI8226,27.2 nM
same,GI50,RS4:11,254 nM
same,GI50,T47D,17.1 nM
same,GI50,U-937,22 nM
same,GI50,U2OS,139 nM
same,GI50,ZR-75-1,79.6 nM
same,GI50,ZR-75-30,76.8 nM
same,effect of p53 silencing on cellular sensitivity (GI50),[1],not observed
same,effect of p53 silencing on cellular sensitivity (GI50),[2],decreased GI50

# Reference: patent US9976183B2, “Biomarkers for cancers responsive to modulators of HEC1 activity” (TAIVEX THERAPEUTICS CORPORATION, priority 2011, dated 2018)
